In ChEMBL document CHEMBL1121458, “Benzenesulfenamides as antihypertensive agents. Substituted piperidine and 1-arylpiperazine derivatives” (1980):

What was measured:
Assay type in all cases: functional
Rattus norvegicus [1] = experiment: Antihypertensive activity was measured for systolic pressure using spontaneous hypertensive rats (SHR) at 10 mg/kg after oral administration
Rattus norvegicus [2] = experiment: Antihypertensive activity was measured for systolic pressure using spontaneous hypertensive rats (SHR) at 25 mg/kg after oral administration
Rattus norvegicus [3] = experiment: Antihypertensive activity was measured for systolic pressure using spontaneous hypertensive rats (SHR) at 50 mg/kg after oral administration
Rattus norvegicus [4] = experiment: Antihypertensive activity was measured for systolic pressure using spontaneous hypertensive rats (SHR) at 50 mg/kg

| SMILES | Change in systolic pressure (Rattus norvegicus [1]) | Change in systolic pressure (Rattus norvegicus [2]) | Change in systolic pressure (Rattus norvegicus [3]) | Change in systolic pressure (Rattus norvegicus [4]) |
| --- | --- | --- | --- | --- |
| [O-][S+](c1ccccc1)N1CCN(c2ccccn2)CC1 (stereo not drawn) | 36 mmHg | 59 mmHg | 80 mmHg | – |
| O=C(c1ccccc1)C1CCN(Sc2ccccc2)CC1 | – | -14 mmHg | – | – |
| COc1cccc(N2CCN(Sc3ccccc3)CC2)c1 | – | – | 35 mmHg | – |
| Brc1ccc(OC2CCN(Sc3ccccc3)CC2)cc1 | – | – | -15 mmHg | – |
| c1ccc(COC2(c3ccccc3)CCN(Sc3ccccc3)CC2)cc1 | – | – | – | 2 mmHg |
| O=S(=O)(c1ccccc1)N1CCN(c2ccccn2)CC1 | – | – | 5 mmHg | – |
| c1ccc(SN2CCN(c3ccccn3)CC2)cc1 | – | 65 mmHg | 40 mmHg | – |
| Cc1ccccc1N1CCN(Sc2ccccc2)CC1 | – | – | 8 mmHg | – |
| Cc1ccc(C(=O)C2CCN(Sc3ccccc3)CC2)cc1 | – | – | 7 mmHg | – |
| N=C(N)NCCN1CCCCCCC1 [GUANETHIDINE] | 34 mmHg | – | – | – |
| COc1ccc(N2CCN(Sc3ccccc3)CC2)cc1 | – | 7 mmHg | – | – |
| c1ccc(SN2CCC3(CC2)OC(c2ccccc2)c2ccccc23)cc1 (stereo not drawn) | – | -44 mmHg | -66 mmHg | – |
| c1ccc(SN2CCC(c3ccccc3)CC2)cc1 | – | – | -9 mmHg | – |
| Cc1cccc(N2CCN(Sc3ccccc3)CC2)c1 | 16 mmHg | – | – | – |
| [O-][S+](c1ccccc1)N1CCN(c2ccccc2)CC1 (stereo not drawn) | 22 mmHg | 42 mmHg | 83 mmHg | – |
| Clc1ccccc1N1CCN(Sc2ccccc2)CC1 | – | – | 28 mmHg | – |
| O=S(=O)(c1ccccc1)N1CCN(c2ccccc2)CC1 | – | 33 mmHg | 26 mmHg | – |
| FC(F)(F)c1cccc(N2CCN(Sc3ccccc3)CC2)c1 | – | – | 6 mmHg | – |
| c1ccc(SN2CCN(c3ccccc3)CC2)cc1 | 16.5 mmHg | 90 mmHg | – | – |
| c1ccc(CN2CCN(Sc3ccccc3)CC2)cc1 | – | 23 mmHg | 17 mmHg | – |
| Clc1ccc(N2CCN(Sc3ccccc3)CC2)cc1 | – | 23.5 mmHg | 44 mmHg | – |
| COc1ccccc1N1CCN(Sc2ccccc2)CC1 | – | 27 mmHg | 71 mmHg | – |
